Experimental data taken from article PMC11563871, “The human ATAD5 has evolved unique structural elements to function exclusively as a PCNA unloader” (Nature Structural & Molecular Biology, 2024).

Key:
[1] = tested on: T1, human ATAD5-RFC–PCNA complex; experiment: cryo-EM structure; type: binding; settings: 0.5 mM ATPγS, Mg2+; bound at ATAD5, RFC2, RFC5 and (states 1 and 2) RFC4
T1 construct: N-terminally truncated ATAD5 (812-end of 1844), N-terminal 3xFLAG and C-terminal 6xHis, with RFC2-RFC5, insect cells (Sf9/Hi5); PCNA homotrimer from E. coli, His tag cut by thrombin; with Proliferating cell nuclear antigen
T1 sequence (Q96QE3 812-1844): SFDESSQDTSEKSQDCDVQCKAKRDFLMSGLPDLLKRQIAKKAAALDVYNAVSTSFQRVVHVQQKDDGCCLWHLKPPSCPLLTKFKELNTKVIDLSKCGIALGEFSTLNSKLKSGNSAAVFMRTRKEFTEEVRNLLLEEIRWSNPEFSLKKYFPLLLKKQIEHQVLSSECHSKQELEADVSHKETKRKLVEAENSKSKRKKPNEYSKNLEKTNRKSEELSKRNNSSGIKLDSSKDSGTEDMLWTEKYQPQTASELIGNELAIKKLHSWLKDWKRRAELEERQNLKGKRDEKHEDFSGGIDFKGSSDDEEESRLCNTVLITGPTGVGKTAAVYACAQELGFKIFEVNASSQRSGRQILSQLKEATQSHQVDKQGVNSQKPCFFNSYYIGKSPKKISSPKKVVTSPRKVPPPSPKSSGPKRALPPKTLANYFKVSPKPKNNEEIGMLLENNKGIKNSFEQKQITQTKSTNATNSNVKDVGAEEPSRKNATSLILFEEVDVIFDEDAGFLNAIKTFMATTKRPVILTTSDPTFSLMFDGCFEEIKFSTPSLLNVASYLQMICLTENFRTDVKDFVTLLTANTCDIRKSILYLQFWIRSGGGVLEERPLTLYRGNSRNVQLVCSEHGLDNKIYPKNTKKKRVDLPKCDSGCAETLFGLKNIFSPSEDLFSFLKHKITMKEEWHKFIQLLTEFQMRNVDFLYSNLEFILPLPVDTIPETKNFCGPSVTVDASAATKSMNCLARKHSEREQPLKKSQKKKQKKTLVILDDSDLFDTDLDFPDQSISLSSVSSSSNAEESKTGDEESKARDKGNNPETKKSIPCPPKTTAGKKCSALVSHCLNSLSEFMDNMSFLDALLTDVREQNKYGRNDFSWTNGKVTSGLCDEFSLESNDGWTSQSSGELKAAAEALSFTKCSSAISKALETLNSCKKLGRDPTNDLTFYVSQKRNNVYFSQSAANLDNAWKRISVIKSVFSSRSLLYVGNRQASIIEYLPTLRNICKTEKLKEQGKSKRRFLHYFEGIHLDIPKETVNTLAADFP
T1 sequence (P35250 whole entry, further chain, the tested form may be a part): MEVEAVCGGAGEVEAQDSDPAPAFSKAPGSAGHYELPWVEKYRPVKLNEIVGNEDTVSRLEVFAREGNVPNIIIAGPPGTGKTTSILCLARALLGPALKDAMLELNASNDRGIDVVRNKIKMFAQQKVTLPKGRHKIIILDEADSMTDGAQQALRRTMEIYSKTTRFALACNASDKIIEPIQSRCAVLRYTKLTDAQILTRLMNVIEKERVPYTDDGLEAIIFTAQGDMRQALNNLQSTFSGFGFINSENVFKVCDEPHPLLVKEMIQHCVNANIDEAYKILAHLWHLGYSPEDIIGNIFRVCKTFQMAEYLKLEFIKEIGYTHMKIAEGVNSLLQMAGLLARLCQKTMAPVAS
T1 sequence (P40938 whole entry, further chain, the tested form may be a part): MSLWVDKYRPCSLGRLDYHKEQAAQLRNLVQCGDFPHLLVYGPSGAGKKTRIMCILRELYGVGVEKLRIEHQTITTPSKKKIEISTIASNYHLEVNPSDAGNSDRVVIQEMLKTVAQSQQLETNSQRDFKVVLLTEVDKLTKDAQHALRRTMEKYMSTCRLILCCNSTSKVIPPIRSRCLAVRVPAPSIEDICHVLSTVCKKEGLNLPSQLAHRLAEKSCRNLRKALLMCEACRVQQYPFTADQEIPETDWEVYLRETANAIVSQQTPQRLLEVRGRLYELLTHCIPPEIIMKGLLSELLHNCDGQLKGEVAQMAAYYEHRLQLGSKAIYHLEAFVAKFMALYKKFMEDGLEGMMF
T1 sequence (P35249 whole entry, further chain, the tested form may be a part): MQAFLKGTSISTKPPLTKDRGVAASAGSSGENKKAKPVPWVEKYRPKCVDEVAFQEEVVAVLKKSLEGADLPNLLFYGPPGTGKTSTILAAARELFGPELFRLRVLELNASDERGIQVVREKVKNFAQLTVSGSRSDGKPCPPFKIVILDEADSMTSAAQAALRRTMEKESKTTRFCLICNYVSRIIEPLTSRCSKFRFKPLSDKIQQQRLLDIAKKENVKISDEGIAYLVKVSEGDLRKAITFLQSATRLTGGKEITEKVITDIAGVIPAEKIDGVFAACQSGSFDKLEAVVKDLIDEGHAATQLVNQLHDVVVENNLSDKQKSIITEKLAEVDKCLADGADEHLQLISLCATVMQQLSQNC
T1 sequence (P40937 whole entry, further chain, the tested form may be a part): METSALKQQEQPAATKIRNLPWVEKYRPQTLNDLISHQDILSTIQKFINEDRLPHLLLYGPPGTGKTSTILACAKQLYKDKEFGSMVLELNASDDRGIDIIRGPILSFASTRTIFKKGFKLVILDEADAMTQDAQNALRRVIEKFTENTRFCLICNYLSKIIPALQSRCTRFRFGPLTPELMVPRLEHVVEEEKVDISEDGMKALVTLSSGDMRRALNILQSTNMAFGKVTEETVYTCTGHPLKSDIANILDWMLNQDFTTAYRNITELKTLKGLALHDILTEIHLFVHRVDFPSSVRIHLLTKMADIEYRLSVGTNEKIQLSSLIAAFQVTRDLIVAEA
T1 sequence (P12004 whole entry partner, the tested form may be a part): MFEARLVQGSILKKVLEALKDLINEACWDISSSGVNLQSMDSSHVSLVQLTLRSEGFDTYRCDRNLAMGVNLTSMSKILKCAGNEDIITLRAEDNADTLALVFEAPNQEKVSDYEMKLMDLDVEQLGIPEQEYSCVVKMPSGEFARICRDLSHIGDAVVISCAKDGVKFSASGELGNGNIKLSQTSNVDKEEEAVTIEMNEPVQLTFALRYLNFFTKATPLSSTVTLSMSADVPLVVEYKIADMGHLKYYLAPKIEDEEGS

ATAD5-RFC = tested on: T2, ATAD5-RFC; experiment: malachite green phosphate ATPase assay; type: biochemical, Homo sapiens; settings: 1 mM ATP, 0.25 μM ATAD5-RFC, 2 mM MgCl2, pH 7.6, room temperature; alone or with PCNA and/or DNA
T2 construct: N-terminally truncated ATAD5 (812-end of 1844), N-terminal 3xFLAG and C-terminal 6xHis, heteropentamer with RFC2-RFC5, insect cells (Sf9/Hi5)
T2 sequence (Q96QE3 812-1844): as the sequence (Q96QE3 812-1844) above
T2 sequence (P35250 whole entry, further chain, the tested form may be a part): as the sequence (P35250 whole entry, further chain, the tested form may be a part) above
T2 sequence (P40938 whole entry, further chain, the tested form may be a part): as the sequence (P40938 whole entry, further chain, the tested form may be a part) above
T2 sequence (P35249 whole entry, further chain, the tested form may be a part): as the sequence (P35249 whole entry, further chain, the tested form may be a part) above
T2 sequence (P40937 whole entry, further chain, the tested form may be a part): as the sequence (P40937 whole entry, further chain, the tested form may be a part) above

| Compound | cryo-EM structure [1] | ATP hydrolyzed/min (ATAD5-RFC) |
| --- | --- | --- |
| Nc1ncnc2c1ncn2[C@@H]1O[C@H](COP(=O)(O)OP(=O)(O)OP(O)(O)=S)[C@@H](O)[C@H]1O [ATPγS] | four subunits (ATAD5, RFC2, RFC5 and RFC4, that is, subunits A–D) each bound an ATPγS |  |
| Nc1ncnc2c1ncn2[C@@H]1O[C@H](COP(=O)(O)OP(=O)(O)OP(=O)(O)O)[C@@H](O)[C@H]1O [ATP] |  | ATP hydrolyzed/min by ATAD5-RFC alone or with PCNA and/or DNA |
